Experimental data reported in US20230165835A1, “METHODS OF TREATING ACUTE LUNG INJURY USING EBSELEN” (SOUND PHARMACEUTICALS INC., priority 2020, published 2023).
Entries after “also recorded” stand apart in the source; their conditions may differ. Read-outs that look alike come from different tables or passages of the source.

Key:
[1] = Cystic fibrosis trial (IV tobramycin + SPI-1005 0/200/400/600 BID, 21 days): FEV1; format: in vivo, human
Experimental: Thirty of 80 participants were enrolled starting in January 2019. They were Cystic fibrosis patients ages 18-70 that had acute pulmonary exacerbation or acute respiratory infections that required treatment with IV tobramycin 10 mg/kg/d for 10-21 days. They were randomized into four groups (1:1:1:1) (0, 200, 400, or 600 BID) and treated for 21 days. There were four follow-up visits for safety (adverse events, spirometry, labs), and two follow-up visits for efficacy (audiometric and vestibular). The primary endpoint was a reduction in cochleotoxic change, and the secondary endpoints was a reduction in tinnitus or vertigo severity.

[2] = Study 6.6: ebselen in severe COVID-19; format: in vivo, human; conditions: 400 or 800 mg BID for 14 days
[3] = Meniere's Disease clinical study: auditory function; format: in vivo, human; conditions: exceeds reported improvements with corticosteroid treatment
Description: (§1) We have studied the efficacy of ebselen in a number of indications including the treatment of Meniere's Disease, and in the treatment of ototoxicity in cystic fibrosis (CF) patients. Ebselen has an anti-inflammatory mechanism of action that is distinct from that of a classic corticosteroid immunosuppressive agent which can be beneficial in the treatment of respiratory viral infections. […] In addition, our Phase 2b study in cystic fibrosis (CF) patients with Pseudomonas is continuing without any safety issues. […] Our results and analysis in these other clinical studies supports the use of ebselen in the subject methods of treating or preventing conditions associated with respiratory viral infections described herein.
(§2) The anti-inflammatory mechanism of action of ebselen is unique and distinct over that of a classic corticosteroid immunosuppressive agent. […] In addition, our Phase 2b study in CF patients with Pseudomonas is continuing without any safety issues.

[4] = tested on: SARS-CoV-2; test: Reduction of SARS-CoV-2 viral load in Vero E6 cells (image based assay of Jin et al.); format: cell-based
[5] = tested on: Vero E6 cells; test: Cytotoxicity / cell viability in Vero E6 cells; format: cell-based
[6] = Study 6.4: ebselen in moderate COVID-19; format: in vivo, human; conditions: 400 or 800 mg BID for 7 days
[7] = Solubility in aqueous solutions; conditions: 25° Celsius
[8] = mice; Gu et al.; cited from earlier work
[9] = tested on: nCoV2; test: Study 6.2: ebselen in nCoV2 positive subjects with no to mild COVID-19, viral load; conditions: 400 to 600 mg BID for 7-10 days, no to mild disease
Experimental: Eligible participants are diagnosed as nCoV2 positive and enrolled for treatment within 1-5 days of appearance of symptoms. The patient is not treated with another anti-viral therapeutic agent prior to beginning of treatment. […] Randomization is stratified by age (<60 years or ≥60 years).
Ebselen is dosed as 400 to 600 mg BID for a period of 7-10 days. […] Participants receive study intervention for up to 10 days and are followed for 28 days after first dose.
Respiratory samples are taken before treatment begins and daily during treatment to assess nCoV2 viral load daily.
The primary efficacy endpoint is the time to significant reduction in pre-treatment viral load (see Zou et al.; Pan et al.). […] Other efficacy assessments are also performed and compared to baseline levels.
Follow-up assessments can be performed at 2, 4, and 8 weeks after the start of treatment. […] Extended dosing involves sub-chronic dosing of 4-12 weeks (e.g., 4, 8 or 12 weeks) with assessment of viral load until virus eliminated.

[10] = Cystic fibrosis trial: sentinel Pk, plasma tobramycin levels (DDI); format: in vivo, human
[11] = tested on: 18 common microbes; test: MIC assays against 18 common microbes (interference); format: cell-based; conditions: to support testing in CF patients
Description: as §1, §2

[12] = mice; Longenecker et al.; cited from earlier work

O=c1c2ccccc2[se]n1-c1ccccc1 [ebselen, 2-phenyl-1,2-benzisoselenazol-3(2H)-one]
change in lung functioning (FEV1) ([1]; 2 and 4 weeks, cystic fibrosis patients on IV tobramycin, versus Part 1 observation study): improvement in lung functioning (FEV1) at both 2 and 4 weeks; also recorded: improved relative FEV1% predicted at 2 and 4 weeks
FEV1 score Mean (SD), 2 Week ([1]; pooled 0/200/400/600 BID groups, baseline 46.87 (13.68), n 17): 48.53 (14.57)
FEV1 score Mean (SD), 4 Week ([1]; pooled 0/200/400/600 BID groups, baseline 46.87 (13.68), n 19): 52.68 (22.99)
respiratory status / time to clinical improvement (WHO ordinal scale) [2]: effective to improve in respiratory status, and/or reduce time to at least a 2-grade improvement from baseline on the WHO ordinal scale
auditory function (hearing loss, word recognition and tinnitus) [3]: improvement in auditory function; also recorded: improve auditory function
EC50 ([4]; SARS-CoV-2, ebselen 100 nM to 1000 μM in DMSO or EtOH, remdesivir 1 nM to 10 μM, listed as ebselen (EtOH), read-out: EC50, reduction in viral load in Vero E6 cells): 10.9 µM
EC50 ([4]; Severe acute respiratory syndrome coronavirus 2, Vero C1008, SARS-CoV-2, ebselen 100 nM to 1000 μM in DMSO or EtOH, remdesivir 1 nM to 10 μM, read-out: EC50, reduction in viral load in Vero E6 cells): 21.3 µM
EC50 ([4]; Severe acute respiratory syndrome coronavirus 2, Vero C1008, Vero E6 cells, ebselen added in DMSO, read-out: EC50, inhibition of viral load): 21 µM
EC50 ([4]; Severe acute respiratory syndrome coronavirus 2, Vero C1008, Vero E6 cells, ebselen added in EtOH, read-out: EC50, inhibition of viral load): 11 µM
inhibition of viral load (FIGS. 1A-C) ([4]; in vitro kidney cell assay (Vero E6 cells)): inhibited viral load
cell viability at the EC50 [5]: 100%
effect on cell viability ([5]; ebselen: at ranges slightly higher than EC50): cell viability was decreased
CC50 ([5]; listed as ebselen (DMSO)): > 1000 µM
CC50 ([5]; listed as ebselen (EtOH)): > 100 µM
respiratory status and progression to severe disease [6]: effective to improve in respiratory status and prevent progression to severe disease
solubility in aqueous solutions [7]: slightly soluble
protection against tobramycin-induced ototoxicity, auditory brainstem responses [8]: otoprotective and neuroprotective properties
viral load [9]: effective to reduce viral load
change in plasma tobramycin levels (DDI) [10]: no significant change in plasma tobramycin levels
interference in MIC assays [11]: lack of interference
tinnitus and hyperacusis following amikacin-induced ototoxicity [12]: improvements in tinnitus and hyperacusis
